Our source for the Emax and EC50 values is US8173638B2 (Boehringer Ingelheim International GmbH, priority 2006, dated 2012).

The target of this experiment is T1, human CB2R (Homo sapiens, UniProt P34972).
T1 construct: host or cells: CHO cells
Briefly: CB2R mediated modulation of cAMP synthesis. The format is cell-based. Conditions: for Emax: 0.5 h, read-out: Agonist Efficacy (%). The method in brief:
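CHO cells expressing human CB2R treated with compound 30 min at 37 °C in buffer with 1 mM IBMX, 0.25% BSA and 10 uM forskolin. cAMP measured after lysis by DiscoverX-XS kit.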

Where [1] appears, read: CHO cells expressing human CB2R, cAMP inhibited by 1 uM CP55940 defined as 100%.

Structures are written as SMILES. Like-named read-outs stand apart in the source and are kept apart here.

T1 sequence (P34972 whole entry): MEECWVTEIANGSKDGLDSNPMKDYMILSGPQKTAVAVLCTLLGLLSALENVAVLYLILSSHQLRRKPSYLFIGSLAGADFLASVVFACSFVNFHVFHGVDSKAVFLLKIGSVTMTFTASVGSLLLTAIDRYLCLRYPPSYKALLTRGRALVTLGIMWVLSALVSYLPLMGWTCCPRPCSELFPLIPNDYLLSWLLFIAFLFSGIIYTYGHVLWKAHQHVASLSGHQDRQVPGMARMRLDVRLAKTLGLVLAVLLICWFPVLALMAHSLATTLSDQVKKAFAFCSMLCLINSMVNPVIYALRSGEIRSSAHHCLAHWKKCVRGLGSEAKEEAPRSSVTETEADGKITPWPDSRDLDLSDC

In the case of `O=C(Nc1ccc(C(F)(F)F)cc1)N1CCCN(C(=O)C2CCC(F)(F)CC2)CC1` [Compound 78, 4-(4,4-Difluoro-cyclohexanecarbonyl)-[1,4]diazepane-1-carboxylic acid (4-trifluoromethyl-phenyl)-amide], under setting [1], the Emax is 87%. Further, under “read-out: hCB2 cAMP EC50”, the EC50 was determined as 71 nM. For the compound `O=C(Nc1ccc2ccccc2c1)N1CCCN(C(=O)c2ccc(Cl)cc2)CC1` [Compound 79, 4-(4-Chloro-benzoyl)-[1,4]diazepane-1-carboxylic acid naphthalen-2-ylamide], the Emax under setting [1] is 100%. The concentration for a half-maximal effect (EC50) (read-out: hCB2 cAMP EC50) worked out at 46 nM.

For the compound `O=C(Nc1ccc(SC(F)(F)F)cc1)N1CCCN(C(=O)C2CCCCC2)CC1` [Compound 80, 4-Cyclohexanecarbonyl-[1,4]diazepane-1-carboxylic acid (4-trifluoromethylsulfanyl-phenyl)-amide], the Emax under setting [1] was determined as 99%. Further, under “read-out: hCB2 cAMP EC50”, the EC50 stood at 12 nM. As to `O=C(Nc1ccc(SC(F)(F)F)cc1)N1CCCN(C(=O)C2CCOCC2)CC1` [Compound 81, 4-(Tetrahydro-pyran-4-carbonyl)-[1,4]diazepane-1-carboxylic acid (4-trifluoromethylsulfanyl-phenyl)-amide], the Emax under setting [1] stood at 96%. The EC50 (read-out: hCB2 cAMP EC50) came out at 120 nM. Consider `O=C(CC1CCCC1)N1CCCN(C(=O)Nc2ccc(SC(F)(F)F)cc2)CC1` [Compound 82, 4-(2-cyclopentyl-acetyl)-[1,4]diazepane-1-carboxylic acid (4-trifluoromethylsulfanyl-phenyl)-amide], for which the Emax under setting [1] was determined as 92%. Besides, the 50% effective concentration (EC50) (read-out: hCB2 cAMP EC50) is 36 nM. Turning to `O=C(Nc1ccc2ccccc2c1)N1CCCN(C(=O)c2ccc(Cl)c(Cl)c2)CC1` [Compound 86, 4-(3,4-Dichloro-benzoyl)-[1,4]diazepane-1-carboxylic acid naphthalen-2-ylamide], under setting [1], the Emax turned out to be 92%. In addition, the EC50 (read-out: hCB2 cAMP EC50) came to 52 nM. In the case of `N#Cc1ccc(C(=O)N2CCCN(C(=O)Nc3ccc4ccccc4c3)CC2)cc1` [Compound 88, 4-(4-Cyano-benzoyl)-[1,4]diazepane-1-carboxylic acid naphthalen-2-ylamide], the Emax under setting [1] amounted to 97%. Further, for the setting “read-out: hCB2 cAMP EC50”, the EC50 is 36 nM. For `O=C(Nc1ccc2ccccc2c1)N1CCCN(C(=O)c2cc(Cl)ccc2Cl)CC1` [Compound 90, 4-(2,5-Dichloro-benzoyl)-[1,4]diazepane-1-carboxylic acid naphthalen-2-ylamide], under setting [1], the Emax is 91%. The EC50 (read-out: hCB2 cAMP EC50) was determined as 20 nM. On to `O=C(Nc1ccc2ccccc2c1)N1CCCN(C(=O)c2ccc(C(F)(F)F)cc2)CC1` [Compound 92, 4-(4-Trifluoromethyl-benzoyl)-[1,4]diazepane-1-carboxylic acid naphthalen-2-ylamide], for which, under setting [1], the Emax came to 96%. For the same compound, the EC50 (read-out: hCB2 cAMP EC50) is 14 nM.

Consider `CC(C)CCC(=O)N1CCCN(C(=O)Nc2ccc3ccccc3c2)CC1` [Compound 94, 4-(4-Methyl-pentanoyl)-[1,4]diazepane-1-carboxylic acid naphthalen-2-ylamide], for which, under setting [1], the Emax is 98%. Besides, the EC50 (read-out: hCB2 cAMP EC50) was 89 nM. For `O=C(Nc1ccc2ccccc2c1)N1CCCN(C(=O)c2ccc(Cl)cc2Cl)CC1` [Compound 99, 4-(2,4-Dichloro-benzoyl)-[1,4]diazepane-1-carboxylic acid naphthalen-2-ylamide], the Emax under setting [1] stood at 102%. Further, for the setting “read-out: hCB2 cAMP EC50”, the EC50 is 100 nM. `CC(C)(C)c1ccc(NC(=O)N2CCCN(C(=O)CC3CCCCC3)CC2)cc1` [Compound 107, 4-(2-Cyclohexyl-acetyl)-[1,4]diazepane-1-carboxylic acid (4-tert-butyl-phenyl)-amide]: the Emax under setting [1] stood at 94%. Moreover, the EC50 (read-out: hCB2 cAMP EC50) was determined as 100 nM. For `CC(C)(C)c1ccc(NC(=O)N2CCCN(C(=O)CCC3CCCCC3)CC2)cc1` [Compound 108, 4-(3-Cyclohexyl-propionyl)-[1,4]diazepane-1-carboxylic acid (4-tert-butyl-phenyl)-amide], the Emax under setting [1] was 96%. In addition, the EC50 (read-out: hCB2 cAMP EC50) is 21 nM. The corresponding values for `CC(C)(C)c1ccc(NC(=O)N2CCCN(C(=O)c3ccc(Cl)c(Cl)c3)CC2)cc1` [Compound 110, 4-(3,4-Dichloro-benzoyl)-[1,4]diazepane-1-carboxylic acid (4-tert-butyl-phenyl)-amide] are 97% and 64 nM. The corresponding values for `CC(C)(C)c1ccc(NC(=O)N2CCCN(C(=O)c3ccc(C#N)cc3)CC2)cc1` [Compound 112, 4-(4-Cyano-benzoyl)-[1,4]diazepane-1-carboxylic acid (4-tert-butyl-phenyl)-amide] are 109% and 19 nM. As for `CC(C)(C)c1ccc(NC(=O)N2CCCN(C(=O)CN3CCSCC3)CC2)cc1` [Compound 121, 4-(2-Thiomorpholin-4-yl-acetyl)-[1,4]diazepane-1-carboxylic acid (4-tert-butyl-phenyl)-amide], under setting [1], the Emax was 103%. Further, the EC50 (read-out: hCB2 cAMP EC50) turned out to be 36 nM.

For the compound `Cc1ccc(C(=O)N2CCCN(C(=O)Nc3ccc(C(C)(C)C)cc3)CC2)cc1` [Compound 122, 4-(4-Methyl-benzoyl)-[1,4]diazepane-1-carboxylic acid (4-tert-butyl-phenyl)-amide], the Emax under setting [1] turned out to be 101%. For the setting “read-out: hCB2 cAMP EC50”, the EC50 stood at 100 nM. Take `O=C(Nc1ccc(C(F)(F)F)cc1)N1CCCN(C(=O)c2ccc(C(F)(F)F)cc2)CC1` [Compound 127, 4-(4-Trifluoromethyl-benzoyl)-[1,4]diazepane-1-carboxylic acid (4-trifluomethyl-phenyl)-amide]: the Emax under setting [1] was 100%. In addition, the EC50 (read-out: hCB2 cAMP EC50) came out at 75 nM. In the case of `O=C(Nc1ccc(C(F)(F)F)cc1)N1CCCN(C(=O)C2CCCCC2)CC1` [Compound 128, 4-Cyclohexanecarbonyl-[1,4]diazepane-1-carboxylic acid (4-trifluoromethyl-phenyl)-amide], the Emax under setting [1] turned out to be 107%. For the same compound, the EC50 (read-out: hCB2 cAMP EC50) was determined as 71 nM. The corresponding values for `O=C(CC1CCCC1)N1CCCN(C(=O)Nc2ccc(Br)c(C(F)(F)F)c2)CC1` [Compound 132, 4-(2-Cyclopentyl-acetyl)-[1,4]diazepane-1-carboxylic acid (4-bromo-3-trifluoromethyl-phenyl)-amide] are 104% and 13 nM. Consider `CCC(C)c1ccc(NC(=O)N2CCCN(C(=O)C3CCOCC3)CC2)cc1` (centres unmarked) [Compound 133, 4-(Tetrahydro-pyran-4-carbonyl)-[1,4]diazepane-1-carboxylic acid (4-sec-butyl-phenyl)-amide], for which, under setting [1], the Emax was 97%. For the same compound, the EC50 (read-out: hCB2 cAMP EC50) was found to be 7.8 nM. Turning to `CC(C)(C)c1cc(NC(=O)N2CCCN(C(=O)CC3CCCC3)CC2)no1` [Compound 140, 4-(2-Cyclopentyl-acetyl)-[1,4]diazepane-1-carboxylic acid (5-tert-butyl-isoxazol-3-yl)-amide], the EC50 worked out at 12 nM. For the same compound, the Emax (CHO) came out at 103%. For the compound `CC(C)(C)c1cc(NC(=O)N2CCCN(C(=O)c3ccc(Cl)cc3)CC2)no1` [Compound 141, 4-(4-Chloro-benzoyl)-[1,4]diazepane-1-carboxylic acid (5-tert-butyl-isoxazol-3-yl)-amide], the Emax under setting [1] turned out to be 101%. In addition, the EC50 (read-out: hCB2 cAMP EC50) was 11 nM. For `CC(C)(C)c1cc(NC(=O)N2CCCN(C(=O)C3CCOCC3)CC2)no1` [Compound 142, 4-(Tetrahydro-pyran-4-carbonyl)-[1,4]diazepane-1-carboxylic acid (5-tert-butyl-isoxazol-3-yl)-amide], the Emax (CHO) is 110%.
